From patent publication US12570659B2, “Bicyclic heteroaryl compounds useful as IRAK4 inhibitors” (BRISTOL-MYERS SQUIBB COMPANY, priority 2019, dated 2026) come the findings set out here.

The target in assay [1] is IRAK4 (Homo sapiens (Human), UniProt Q9NWZ3). Kind of assay: IRAK4 Inhibition Assay. The format is biochemical. Conditions: ATP 500 μM; IRAK4 0.6 nM; 60 min room temperature. In a few lines:
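Phosphorylated and unphosphorylated fluorescent substrate were resolved by microfluidic electrophoresis after termination with 35 mM EDTA. The room-temperature kinase reaction lasted 60 min after IRAK4, substrates and test compound were combined; vehicle-only defined 0% and no-enzyme 100% inhibition.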

Assay [2] has as its target JAK3 kinase (Homo sapiens (Human), UniProt P52333). The experiment in a line: JAK3 Homogeneous Time Resolved Fluorescence (HTRF) Assay. It is filed as binding. Conditions: for IC50: competition binding with fluorescein-labeled ATP competitive probe; for Ratio of JAK3 IC50 to IRAK4 IC50: selectivity for IRAK4 over JAK3. In a few lines:
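IC50 reflects displacement of a fluorescein-labeled ATP-site probe (at its Kd) from 1 nM tagged JAK3, detected via 0.2 nM Tb anti-His or anti-GST antibody. One-hour incubation; 495 and 520 nm emission ratios, background-subtracted, normalized to maximum signal; 11-point percent inhibition, 4-parameter logistic.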
Background: TR-FRET usually uses a lanthanide donor and a delayed reading to cut background.

A word on the IC50: it is the concentration needed to halve the response being measured.

Sequence of JAK3 kinase (P52333 whole entry): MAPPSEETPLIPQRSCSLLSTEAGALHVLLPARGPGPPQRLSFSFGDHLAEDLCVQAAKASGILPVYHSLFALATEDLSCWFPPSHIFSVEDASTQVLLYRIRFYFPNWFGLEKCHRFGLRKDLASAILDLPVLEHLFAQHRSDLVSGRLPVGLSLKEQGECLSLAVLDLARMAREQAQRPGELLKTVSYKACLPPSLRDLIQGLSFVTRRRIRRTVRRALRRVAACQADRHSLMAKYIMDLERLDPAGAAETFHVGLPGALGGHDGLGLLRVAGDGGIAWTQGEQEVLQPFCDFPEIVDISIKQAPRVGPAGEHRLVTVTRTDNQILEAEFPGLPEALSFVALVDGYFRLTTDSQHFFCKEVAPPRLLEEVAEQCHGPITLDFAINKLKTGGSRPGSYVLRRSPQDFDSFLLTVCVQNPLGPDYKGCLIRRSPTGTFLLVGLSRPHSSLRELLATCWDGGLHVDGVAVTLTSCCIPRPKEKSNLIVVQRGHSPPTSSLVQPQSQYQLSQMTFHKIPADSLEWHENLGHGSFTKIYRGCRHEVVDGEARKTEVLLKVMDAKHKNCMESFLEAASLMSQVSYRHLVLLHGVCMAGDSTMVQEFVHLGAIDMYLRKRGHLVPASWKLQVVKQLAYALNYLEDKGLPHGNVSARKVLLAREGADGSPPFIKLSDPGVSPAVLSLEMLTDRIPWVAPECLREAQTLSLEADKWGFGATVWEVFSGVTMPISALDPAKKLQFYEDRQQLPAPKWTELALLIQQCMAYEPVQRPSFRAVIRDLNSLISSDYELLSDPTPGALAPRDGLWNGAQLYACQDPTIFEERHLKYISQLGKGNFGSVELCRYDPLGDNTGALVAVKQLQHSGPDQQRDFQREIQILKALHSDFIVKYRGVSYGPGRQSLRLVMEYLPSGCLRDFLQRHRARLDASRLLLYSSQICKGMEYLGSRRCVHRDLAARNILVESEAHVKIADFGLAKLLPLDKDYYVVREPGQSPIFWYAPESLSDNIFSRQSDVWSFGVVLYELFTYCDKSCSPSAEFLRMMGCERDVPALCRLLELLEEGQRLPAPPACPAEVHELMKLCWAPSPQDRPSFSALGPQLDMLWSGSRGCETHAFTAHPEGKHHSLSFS
Sequence of IRAK4 (Q9NWZ3 whole entry, species assumed): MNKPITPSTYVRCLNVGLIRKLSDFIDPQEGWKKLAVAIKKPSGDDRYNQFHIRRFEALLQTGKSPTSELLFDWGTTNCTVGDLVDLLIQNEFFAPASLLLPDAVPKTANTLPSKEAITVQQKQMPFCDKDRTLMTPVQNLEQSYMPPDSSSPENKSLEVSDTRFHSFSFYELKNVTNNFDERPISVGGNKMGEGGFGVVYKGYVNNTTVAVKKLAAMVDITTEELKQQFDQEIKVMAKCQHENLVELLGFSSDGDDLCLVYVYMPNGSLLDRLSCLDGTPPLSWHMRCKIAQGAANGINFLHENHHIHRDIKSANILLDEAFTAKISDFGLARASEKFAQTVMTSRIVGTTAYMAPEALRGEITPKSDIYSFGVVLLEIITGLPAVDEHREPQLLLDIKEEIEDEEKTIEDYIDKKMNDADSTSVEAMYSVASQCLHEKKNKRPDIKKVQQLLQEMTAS

Take `COc1cc(-c2cc3c(NC(C)C)c(C(=O)NCCC(C)(C)O)cnn3c2)c(F)cn1` [Example 78, 6-(5-fluoro-2-methoxypyridin-4-yl)-N-(3-hydroxy-3-methylbutyl)-4-(isopropylamino) pyrrolo[1,2-b]pyridazine-3-carboxamide]: in assay [1], the 50% inhibitory concentration (IC50) was 9.1 nM. In addition, in assay [2], the IC50 was greater than 50000 nM and the “Ratio of JAK3 IC50 to IRAK4 IC50” value is given as greater than 5495.

Take `Nc1c(C(=O)NCCN2CCOCC2)cnn2cc(-c3ccncc3F)cc12` [Example 79, 4-amino-6-(3-fluoropyridin-4-yl)-N-(2-morpholinoethyl)pyrrolo[1,2-b]pyridazine-3-carboxamide]: the half-inhibitory concentration (IC50) is 110 nM in assay [1] and greater than 50000 nM in assay [2]. Moreover, the “Ratio of JAK3 IC50 to IRAK4 IC50” value in assay [2] was greater than 455.

As to `CC(=O)N[C@H]1CC[C@H](NC(=O)c2cnn3cc(-c4ccc(F)cn4)cc3c2NC(C)C)CC1` [Example 82, N-((1r,4r)-4-acetamidocyclohexyl)-6-(5-fluoropyridin-2-yl)-4-(isopropylamino)pyrrolo[1,2-b]pyridazine-3-carboxamide], the IC50 was 34 nM in assay [1] and greater than 50000 nM in assay [2]. In addition, the “Ratio of JAK3 IC50 to IRAK4 IC50” value in assay [2] is greater than 1471.

As to `Cc1cc(F)ncc1-c1cc2c(NC(C)C)c(C(=O)N[C@H]3CC[C@H](C(=O)N4CCOCC4)CC3)cnn2c1` [Example 83, 6-(6-fluoro-4-methylpyridin-3-yl)-4-(isopropylamino)-N-((1r,4r)-4-(morpholine-4-carbonyl)cyclohexyl)pyrrolo[1,2-b]pyridazine-3-carboxamide], the IC50 in assay [1] stood at 23 nM. Besides, in assay [2], the IC50 is roughly 49000 nM and the “Ratio of JAK3 IC50 to IRAK4 IC50” value is reported as roughly 2130.

On to `Cc1cc(F)ncc1-c1cc2c(NC(C)C)c(C(=O)NC3CCN(S(C)(=O)=O)CC3)cnn2c1` [Example 86, 6-(6-fluoro-4-methylpyridin-3-yl)-4-(isopropylamino)-N-(1-(methylsulfonyl)piperidin-4-yl)pyrrolo[1,2-b]pyridazine-3-carboxamide], for which the IC50 is 46 nM in assay [1] and greater than 50000 nM in assay [2]. Also, the “Ratio of JAK3 IC50 to IRAK4 IC50” value in assay [2] is greater than 1087.

In the case of `CC(C)Nc1c(C(=O)NC[C@@H](F)C(C)(C)O)cnn2cccc12` [Example 96, (R)—N-(2-fluoro-3-hydroxy-3-methylbutyl)-4-(isopropylamino)pyrrolo[1,2-b]pyridazine-3-carboxamide], in assay [1], the IC50 was 740 nM. For the same compound, in assay [2], the IC50 is greater than 50000 nM and the “Ratio of JAK3 IC50 to IRAK4 IC50” value is greater than 68.

For `CC(C)Nc1c(C(=O)NC[C@@H](F)C(C)(C)O)cnn2cc(-c3cccc(C#N)c3)nc12` [Example 98, (R)-2-(3-cyanophenyl)-N-(2-fluoro-3-hydroxy-3-methylbutyl)-8-(isopropylamino)imidazo[1,2-b]pyridazine-7-carboxamide], in assay [1], the IC50 is 240 nM. Besides, in assay [2], the IC50 was greater than 50000 nM and the “Ratio of JAK3 IC50 to IRAK4 IC50” value is greater than 208.

For the compound `CC(C)Nc1c(C(=O)NC[C@@H](F)C(C)(C)O)cnn2cc(-c3cccnc3)nc12` [Example 99, (R)—N-(2-fluoro-3-hydroxy-3-methylbutyl)-8-(isopropylamino)-2-(pyridin-3-yl) imidazo[1,2-b]pyridazine-7-carboxamide], the IC50 in assay [1] amounted to 66 nM. In assay [2], the IC50 is greater than 10000 nM and the “Ratio of JAK3 IC50 to IRAK4 IC50” value is greater than 152.

Regarding `CC(C)Nc1c(C(=O)NC[C@@H](F)C(C)(C)O)cnn2cc(-c3ccncc3)nc12` [Example 100, (R)—N-(2-fluoro-3-hydroxy-3-methylbutyl)-8-(isopropylamino)-2-(pyridin-4-yl)imidazo[1,2-b]pyridazine-7-carboxamide], the concentration for half-maximal inhibition (IC50) in assay [1] came out at 15 nM. Moreover, in assay [2], the IC50 is greater than 50000 nM and the “Ratio of JAK3 IC50 to IRAK4 IC50” value was greater than 3333.

Turning to `CC(C)Nc1c(C(=O)NC[C@@H](F)C(C)(C)O)cnn2cc(-c3ccc(C#N)nc3)nc12` [Example 101, (R)-2-(6-cyanopyridin-3-yl)-N-(2-fluoro-3-hydroxy-3-methylbutyl)-8-(isopropylamino)imidazo[1,2-b]pyridazine-7-carboxamide], the IC50 in assay [1] was 70 nM. Moreover, in assay [2], the IC50 is greater than 50000 nM and the “Ratio of JAK3 IC50 to IRAK4 IC50” value is greater than 714.

With `CC(C)Nc1c(C(=O)NC[C@@H](F)C(C)(C)O)cnn2cc(-c3cncs3)nc12` [Example 102, (R)—N-(2-fluoro-3-hydroxy-3-methylbutyl)-8-(isopropylamino)-2-(thiazol-5-yl)imidazo[1,2-b]pyridazine-7-carboxamide], the IC50 was 22 nM in assay [1] and greater than 50000 nM in assay [2]. In addition, the “Ratio of JAK3 IC50 to IRAK4 IC50” value in assay [2] is reported as greater than 2273.

With `CC(C)Nc1c(C(=O)NC[C@@H](F)C(C)(C)O)cnn2cc(-c3cccnc3F)nc12` [Example 103, (R)—N-(2-fluoro-3-hydroxy-3-methylbutyl)-2-(2-fluoropyridin-3-yl)-8-(isopropylamino)imidazo[1,2-b]pyridazine-7-carboxamide], in assay [1], the IC50 is 45 nM. In assay [2], the IC50 is greater than 50000 nM and the “Ratio of JAK3 IC50 to IRAK4 IC50” value is greater than 1111.

For `CC(C)Nc1c(C(=O)NC[C@@H](F)C(C)(C)O)cnn2cc(-c3ccc(F)cc3)nc12` [Example 104, (R)—N-(2-fluoro-3-hydroxy-3-methylbutyl)-2-(4-fluorophenyl)-8-(isopropylamino)imidazo[1,2-b]pyridazine-7-carboxamide], the IC50 in assay [1] amounted to 39 nM. Further, in assay [2], the IC50 was greater than 10000 nM and the “Ratio of JAK3 IC50 to IRAK4 IC50” value is greater than 256.

In the case of `CC(C)Nc1c(C(=O)NCCC(C)(C)O)cnn2cc(-c3ccncc3)nc12` [Example 105, N-(3-hydroxy-3-methylbutyl)-8-(isopropylamino)-2-(pyridin-4-yl)imidazo[1,2-b]pyridazine-7-carboxamide], the 50% inhibitory concentration (IC50) in assay [1] was 62 nM; in assay [2], greater than 50000 nM. Also, the “Ratio of JAK3 IC50 to IRAK4 IC50” value in assay [2] was greater than 806.

As for `CC(C)Nc1c(C(=O)NCCN2CCOCC2)cnn2cc(-c3ccncc3F)nc12` [Example 106, 2-(3-fluoropyridin-4-yl)-8-(isopropylamino)-N-(2-morpholinoethyl)imidazo[1,2-b]pyridazine-7-carboxamide], the figures for the IC50 in assay [1] and in assay [2] were 22 nM and greater than 50000 nM, respectively. The “Ratio of JAK3 IC50 to IRAK4 IC50” value in assay [2] is listed as greater than 2273.

As to `CC(C)Nc1c(C(=O)NCCC(C)(C)O)cnn2cc(-c3cn[nH]c3)nc12` [Example 107, N-(3-hydroxy-3-methylbutyl)-8-(isopropylamino)-2-(1H-pyrazol-4-yl)imidazo[1,2-b]pyridazine-7-carboxamide], the IC50 in assay [1] was 90 nM; in assay [2], greater than 50000 nM. The “Ratio of JAK3 IC50 to IRAK4 IC50” value in assay [2] was greater than 556.

Turning to `CC(C)Nc1c(C(=O)NCCN2CCOCC2)cnn2cc(-c3cn[nH]c3)nc12` [Example 110, 8-(isopropylamino)-N-(2-morpholinoethyl)-2-(1H-pyrazol-4-yl) imidazo[1,2-b]pyridazine-7-carboxamide], in assay [1], the IC50 was 150 nM. In assay [2], the IC50 was greater than 50000 nM and the “Ratio of JAK3 IC50 to IRAK4 IC50” value is on record as greater than 333.

With `CC(=O)N1CCC(NC(=O)c2cnn3cc(-c4ccncc4F)nc3c2NC(C)C)CC1` [Example 112, N-(1-acetylpiperidin-4-yl)-2-(3-fluoropyridin-4-yl)-8-(isopropylamino)imidazo[1,2-b]pyridazine-7-carboxamide], the IC50 in assay [1] stood at 11 nM. For the same compound, in assay [2], the IC50 is greater than 10000 nM and the “Ratio of JAK3 IC50 to IRAK4 IC50” value is reported as greater than 909.

As to `Cc1cc(F)ncc1-c1cn2ncc(C(=O)N[C@H]3C[C@H](C(C)(C)O)C3)c(NC(C)C)c2n1` [Example 113, 2-(6-fluoro-4-methylpyridin-3-yl)-N-((1r,3r)-3-(2-hydroxypropan-2-yl)cyclobutyl)-8-(isopropylamino) imidazo[1,2-b]pyridazine-7-carboxamide], the IC50 in assay [1] is 96 nM. Moreover, in assay [2], the IC50 is greater than 50000 nM and the “Ratio of JAK3 IC50 to IRAK4 IC50” value is listed as greater than 521.

`CC(C)Nc1c(C(=O)N[C@H]2C[C@H](C(C)(C)O)C2)cnn2cc(-c3ccc(F)nc3)nc12` [Example 114, 2-(6-fluoropyridin-3-yl)-N-((1r,3r)-3-(2-hydroxypropan-2-yl)cyclobutyl)-8-(isopropylamino)imidazo[1,2-b]pyridazine-7-carboxamide]: the IC50 in assay [1] is 840 nM. Also, in assay [2], the IC50 is greater than 50000 nM and the “Ratio of JAK3 IC50 to IRAK4 IC50” value is greater than 60.

On to `CC(C)Nc1c(C(=O)NC[C@@H](F)C(C)(C)O)cnc2cc(-c3cccnc3)nn12` [Example 115, (R)—N-(2-fluoro-3-hydroxy-3-methylbutyl)-7-(isopropylamino)-2-(pyridin-3-yl) pyrazolo[1,5-a]pyrimidine-6-carboxamide], for which the IC50 in assay [1] was found to be 25 nM. In assay [2], the IC50 was greater than 10000 nM and the “Ratio of JAK3 IC50 to IRAK4 IC50” value is reported as greater than 400.

Take `CC(C)Nc1c(C(=O)NC[C@@H](F)C(C)(C)O)cnc2cc(-c3ccncc3)nn12` [Example 122, (R)—N-(2-fluoro-3-hydroxy-3-methylbutyl)-7-(isopropylamino)-2-(pyridin-4-yl)pyrazolo[1,5-a] pyrimidine-6-carboxamide]: the IC50 in assay [1] is 16 nM. In addition, in assay [2], the IC50 is greater than 10000 nM and the “Ratio of JAK3 IC50 to IRAK4 IC50” value is given as greater than 625.

For `CC(C)Nc1c(C(=O)NC[C@@H](F)C(C)(C)O)cnc2cc(-c3ccc(=O)[nH]c3)nn12` [Example 123, (R)—N-(2-fluoro-3-hydroxy-3-methylbutyl)-7-(isopropylamino)-2-(6-oxo-1,6-dihydropyridin-3-yl)pyrazolo[1,5-a]pyrimidine-6-carboxamide], the IC50 in assay [1] was 4.9 nM; in assay [2], greater than 50000 nM. Besides, the “Ratio of JAK3 IC50 to IRAK4 IC50” value in assay [2] was greater than 10204.
